Counter-ions that a name gives are not always drawn.
Experiments:
whole sheep blood = test: Tilt Tube Clot Test; format: biochemical; conditions: Example 3
Method: Beakers containing the mixtures were placed on a magnetic stirrer with a stirring rod placed therein. The stir plate was set to 300 RPM. Once the mixture appeared uniform, 130 μL of the mixture was pipetted into each of the appropriately labeled tubes. 20 samples per concentration were used. The samples were tested in a Tilt Tube Clot Test method described below. A water bath was prepared to 37±1° C., and a test tube holder was placed therein. One mL of whole sheep blood at 37° C. was pipetted into each test tube. 150 μL of CaCl2 at 37° C. was then pipetted into a tube and a timer was then started (time “0”). Tubes were capped and gently shaken twice to ensure that the CaCl2 was completely mixed with the blood, and then placed in the water bath. Tubes were tilted by 90° at 15 second intervals, beginning when the timer reads 45 seconds. The time to clot was determined by visual inspection and the clot time was recorded. A clot is defined as a solid mass that may or may not adhere to bottom of test tube. The average clot time for control blood and hemostatic agents was then calculated. […] Samples from Tests 11-13 and Test 10 from Example 2 were then further separated into 0.5″ by 0.5″ squares and added to test tubes. A Tilt Tube Clot Test, as described in Example 1, was performed.

[1] = Appearance of coated gauze after drying at 80° C. for 24 hours; format: physicochemical; conditions: exposure to 80° C. for 24 hours
Method: To coat the gauze, 20 mL of the coating mixture was poured into a flatbottom glass dish and then the gauze dipped into the mixture. The gauze was then lifted and allowed to drip. The coated gauze was placed on the wire rack and dried at 80° C. for 24 hrs. After drying was complete, samples were taken from the oven and remeasured for weight and moisture.
After coating, there were noticeable white clumps on the gauze.

[2] = Observation of salt dissolution in DI water during coating; format: physicochemical; conditions: Example 3 coating mixture, 0.39 g in 100 mL DI water

appearance after drying [1]	dissolution in DI water [2]	Structure (SMILES)	clot time (whole sheep blood; tested concentrations for CHA (300 and 50 μg/cm^2 targeted)) [s]	clot time (whole sheep blood; estimated 300 μg/cm^2, at some individual data points)
discolored, turning a yellow/orange	–	CC(=O)O.CC(=O)O.NC(=N\CCCCCC/N=C(N)/N=C(\N)Nc1ccc(Cl)cc1)/N=C(\N)Nc1ccc(Cl)cc1 [CHA, Chlorhexidine diacetate]	≥ 150	–
–	did not dissolve	[H]/N=C(\N/C(=N/[H])NCCCCCCNC(=N)NC(=N)Nc1ccc(Cl)cc1)Nc1ccc(Cl)cc1 [CHD, Chlorhexidine dihydrochloride]	–	less than 150 seconds
